{"source": "patent US7345091B2", "about": "“Carotenoid ether analogs or derivatives for the inhibition and amelioration of disease” (Cardax Pharmaceuticals, Inc., priority 2002, dated 2008)", "key": {"[1]": {"tested_on": "male ICR mice", "assay": "LPS/galactosamine-induced liver injury (plasma ALT)", "type": "in vivo, mouse", "details": "for LPS-induced ALT elevation: 500 mg/kg oral gavage in emulsion 2 hours before LPS/D-galactosamine IP, 5 hours", "procedure": "Three-month old male ICR mice were treated with LPS and galactosamine in order to induce liver injury (Leist, 1995). Mice were first orally gavaged with either an olive oil/water/lecithin emulsion (10 mL/kg, or 0.3 mL for a 30 gram mouse), or the same emulsion containing the disodium disuccinate astaxanthin derivative XVI (50 mg/mL) for a final disodium disuccinate astaxanthin dose of 500 mg/kg. Two hours later mice were injected intraperitoneally (IP) with either saline (10 mL/kg) or a solution of E. coli LPS (3 mg/kg, Sigma catalog number L-3755) and D-galactosamine (700 mg/kg). Animals were sacrificed by carbon dioxide (CO2) asphyxiation 5 hours after the IP injection, and plasma was then collected for ALT determination."}, "[2]": {"tested_on": "C3H/10T1/2 cells", "assay": "Assembly of Cx43 into plaques (immunofluorescent staining)", "type": "cell-based, mouse", "details": "1×10^-5 M in 1:2 EtOH/H2O, 4 days", "procedure": "In this experiment expression and assembly of Cx43 into plaques was assessed by immunofluorescent staining. Procedures were essentially as described in Zhang (1992). Briefly, confluent cultures of C3H/10T1/2 cells were grown on Permanox plastic 4-chamber slides (Nalge Nunc International, Naperville, Ill.) and treated for 4 days with: (1) the disodium salt disuccinate astaxanthin derivative XVI (statistical mixture of stereoisomers) dissolved in a 1:2 EtOH/H2O formulation; (2) the retinoid TTNPB at 1×10^−8 M in tetrahydrofuran as a positive control; or (3) 1:2 EtOH/H2O as a solvent control. Cells were fixed with −20° C. methanol overnight, washed in buffer, blocked in 1% bovine serum albumin (Sigma, St, Louis, Mo.) in PBS, and incubated with the rabbit polyclonal anti-Cx43 antibody (Zymed, San Francisco, Calif.) as in (2) above and detected with Alexa568 conjugated anti-rabbit secondary (Molecular Probes, Eugene, Oreg.). Slides were illuminated with […] light and images were acquired at a wavelength of 600 nm using the Zeiss Axioscope light microscope and a Roper Scientific cooled CCD camera. […] In cultures treated with solvent as control, such immunoreactive plaques were infrequent and were smaller than those detected in cells treated with the statistical mixture of stereoisomers of the disodium salt disuccinate astaxanthin derivative XVI or with TTNPB as positive control. […]"}, "[3]": {"tested_on": "mouse embryonic fibroblast C3H/10T 1/2 cells", "assay": "Gap junctional communication assay (Lucifer Yellow dye transfer)", "type": "cell-based", "details": "1×10^-5 M in 1:2 EtOH/H2O, 4 days; for extent of junctional communication: vs solvent controls", "procedure": "A series of experiments were performed to assess the ability of the disodium salt disuccinate astaxanthin derivatives XVI to induce gap junctional communication (GJC) in an immortalized line of murine fibroblasts. Studies were conducted: • (1) at the functional level to measure cell/cell communication by increased dye transfer between confluent cells in monolayer culture; • (2) at the molecular level as measured by the ability of these compounds to induce expression of connexin43 (Cx43) protein. Cx43 is the structural unit of the intercellular channels in these fibroblasts that allows GJC; • (3) at the cellular level as shown by the ability of the disodium salt disuccinate astaxanthin derivatives XVI to increase the number and size of Cx43 immunoreactive plaques in regions of the plasma membrane in direct contact with adjacent cells. (1) Communication Assays. Experiments were performed to assess the ability of the disodium salt disuccinate astaxanthin derivative XVI [as a statistical mixture of the all-trans (all-E) stereoisomers, 3S,3′S, meso, and 3R,3′R in 1:2:1 ratio] to enhance gap junctional intercellular communication (GJC) between mouse embryonic fibroblast C3H/10T 1/2 cells. This ability has been previously highly correlated with the ability of carotenoids to inhibit carcinogen-induced neoplastic transformation (Zhang, 1992). Moreover, Cx43-mediated junctional communication between cardiac myocytes is responsible for transfer of signals that maintain synchronous contractions and prevent cardiac arrhythmias (Peters, 1995). Junctional permeability was assayed by microinjection of the fluorescent dye Lucifer Yellow CH (Sigma, St. Louis, Mo.) into individual confluent cells essentially as described previously (Zhang, 1994). […] Successful injection of Lucifer Yellow was confirmed by brief illumination with UV light, which causes yellow fluorescence of Lucifer Yellow. […] The number of fluorescent cells adjacent to the injected cell was later determined by digital image analysis using an unbiased density threshold method and the SigmaScan software program (Jandel Scientific). […]"}}, "note": "“Also recorded” adds a separate entry of the source. Counter-ions that a name gives are not always drawn.", "data": [{"smiles": "CC1=C(/C=C/C(C)=C/C=C/C(C)=C/C=C/C=C(C)/C=C/C=C(C)/C=C/C2=C(C)C(=O)C(OC(=O)CCC(=O)O)CC2(C)C)C(C)(C)CC(OC(=O)CCC(=O)O)C1=O", "note": "(racemic) [XVI, Disodium Salt of the Disuccinic Acid Ester of Astaxanthin]", "values": [{"measurement": "LPS-induced ALT elevation", "setting": "[1]", "value": "substantially reduced"}, {"measurement": "LPS-induced ALT elevation", "setting": "[1]; listed as disodium disuccinate astaxanthin derivative", "value": "reduced induced levels of ALT"}, {"measurement": "effect on plasma ALT in saline injected (sham-treated) animals", "setting": "[1]; 500 mg/kg oral gavage in emulsion, listed as disodium disuccinate astaxanthin derivative", "value": "no effect on plasma ALT; also recorded: no effect on background levels of ALT"}, {"measurement": "assembly of immunoreactive Cx43 into plaques", "setting": "[2]", "value": "increases assembly of Cx43; also recorded: exhibited assembly of immunoreactive Cx43 into plaques"}, {"measurement": "microinjected treated cells functionally coupled by gap junctions", "setting": "[3]; 15 of 22 cells, control 27%", "value": 56, "unit": "%"}, {"measurement": "extent of junctional communication", "setting": "[3]", "value": "effectively increased the extent of junctional communication"}, {"measurement": "extent of junctional communication", "setting": "[3]; listed as disodium salt disuccinate astaxanthin derivative", "value": "induces functional gap junctional communication"}]}]}
